Test results: US9315539B2 (YALE UNIVERSITY, priority 2002, dated 2016)
Entries after “also recorded” stand apart in the source; their conditions may differ.

What was measured:
Ishikawa cell [1] = assay: Agonist/antagonist character of the analogs (Tables 1 and 2); type: cell-based; details: estrogen agonism or antagonism, assay not named in the tables
From the text: From the estrogen competition assay, we expected that the methyl and ethyl esters, E11-2,1 and E11-2,2 would have relatively high activity in the estrogen potency assay, induction of alkaline phosphatase in Ishikawa cells. However, the results were quite unexpected (see FIG. 5, attached). […] We had never previously seen this disparity between estrogen receptor binding and biological activity. It occurred to us that we were observing the results that would obtained with a SERM and that E11-2,2 was in fact an antiestrogen. Consequently, we repeated the Ishikawa assay as an antiestrogenic assay (the assay is run in the presence of specified amounts of estradiol). […] We continued our synthesis of various analogs in order to define the chemical characteristics that lead to antiestrogenic effects. […] In this regard, several compounds are described with a 17α-ethynyl group in order to protect the C-17 hydroxyl from biological oxidation.

estrogen receptor = target: T1, estrogen receptor (Homo sapiens, UniProt P03372); assay: Estrogen receptor competition assay (relative binding affinity); details: estradiol (E2) = 100%
T1 sequence (P03372 1-595): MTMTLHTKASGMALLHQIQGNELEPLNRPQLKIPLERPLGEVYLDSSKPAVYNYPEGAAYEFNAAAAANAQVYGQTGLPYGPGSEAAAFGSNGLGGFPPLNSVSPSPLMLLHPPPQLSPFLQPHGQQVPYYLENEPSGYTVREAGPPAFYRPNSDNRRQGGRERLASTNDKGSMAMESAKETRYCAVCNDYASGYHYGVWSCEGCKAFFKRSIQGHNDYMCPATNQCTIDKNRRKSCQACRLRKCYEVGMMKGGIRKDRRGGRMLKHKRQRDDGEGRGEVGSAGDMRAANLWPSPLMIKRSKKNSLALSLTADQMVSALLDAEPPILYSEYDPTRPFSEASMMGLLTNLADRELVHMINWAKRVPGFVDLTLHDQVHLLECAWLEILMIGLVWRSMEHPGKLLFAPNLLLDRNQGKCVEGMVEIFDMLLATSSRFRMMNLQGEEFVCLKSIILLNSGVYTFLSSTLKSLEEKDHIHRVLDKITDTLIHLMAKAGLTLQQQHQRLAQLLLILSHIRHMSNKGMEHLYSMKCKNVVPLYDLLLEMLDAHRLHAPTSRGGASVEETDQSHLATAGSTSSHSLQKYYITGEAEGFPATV

Ishikawa cells = assay: Ishikawa estrogenic potency assay, induction of alkaline phosphatase; type: cell-based; details: for estrogenic activity (in words): induction of alkaline phosphatase in Ishikawa cells; for relative stimulatory activity (RSA): induction of alkaline phosphatase, estradiol set at 100%
From the text: (§1) Ishikawa Estrogenic Potency Assay From the estrogen competition assay, we expected that the methyl and ethyl esters, E11-2,1 and E11-2,2 would have relatively high activity in the estrogen potency assay, induction of alkaline phosphatase in Ishikawa cells. However, the results were quite unexpected (see FIG. 5, attached). […] We had never previously seen this disparity between estrogen receptor binding and biological activity. It occurred to us that we were observing the results that would obtained with a SERM and that E11-2,2 was in fact an antiestrogen. Consequently, we repeated the Ishikawa assay as an antiestrogenic assay (the assay is run in the presence of specified amounts of estradiol).

Ishikawa cell [2] = assay: Antiestrogen Ishikawa cell assay (run in the presence of estradiol); type: cell-based; details: for antiestrogenic activity (in words): inhibition of estradiol-stimulated alkaline phosphatase
From the text: as §1, with “From” for “Ishikawa Estrogenic Potency Assay From”

[3] = test system: uterotrophic action of estradiol; assay: In vivo uterotrophic assay, antiestrogenic action; parameters: species or system rat; details: immature female rats; for effect on uterotrophic action of estradiol: 20 ng estradiol
Experimental: In Vivo Uterotropic Activity
The analogs were administered concurrently in the same oil.

**Q.** For `C#CC1(O)CCC2C3CCc4cc(O)ccc4C3C(CCCOC(C)C)CC21C` (stereo not drawn) [17α-ethynyl-E11-3,iPr ether], which “agonist / antagonist character” value (Ishikawa cell [1]) is on record?
**A.** The value was “very strong antagonist”.

**Q.** How did the “agonist / antagonist character” value (Ishikawa cell [1]) turn out when `C#CC1(O)CCC2C3CCc4cc(O)ccc4C3C(CCCOC(C)(C)C)CC21C` (stereo not drawn) [17α-ethynyl-E11-3,tBu ether] was run?
**A.** Its value is “very strong antagonist”.

**Q.** With `CC(=O)OC[C@H]1C[C@]2(C)[C@@H](O)CC[C@H]2[C@@H]2CCc3cc(O)ccc3[C@@H]12` [E11-1,2Rev] as the compound, how does the “agonist / antagonist character” value (Ishikawa cell [1]) read?
**A.** Its value is “agonist”.

**Q.** With `CCOCC1CC2(C)C(O)CCC2C2CCc3cc(O)ccc3C12` (centres unmarked) [E11-1,2ether] as the compound, how does the “agonist / antagonist character” value (Ishikawa cell [1]) read?
**A.** Its value is “agonist”.

**Q.** How did the “agonist / antagonist character” value (Ishikawa cell [1]) turn out when `CCCOCC1CC2(C)C(O)CCC2C2CCc3cc(O)ccc3C12` (centres unmarked) [E11-1,3ether] was run?
**A.** The value was “strong antagonist”.

**Q.** With `C[C@]12C[C@H](CC(=O)O)[C@@H]3c4ccc(O)cc4CC[C@H]3[C@@H]1CC[C@@H]2O` [E11-2,0] as the compound, how does the “relative binding affinity (RBA)” value (estrogen receptor) read?
**A.** The value was 0.3%.

**Q.** And the “estrogenic activity (in words)” value (Ishikawa cells)?
**A.** Its value is “more active than E11-2,2”.

**Q.** What about the “antiestrogenic activity (in words)” value (Ishikawa cell [2]) of the same compound?
**A.** Its value is “neither E11-2,1 nor E11-2,0 showed any antiestrogenic activity”.

**Q.** `COC(=O)C[C@H]1C[C@]2(C)[C@@H](O)CC[C@H]2[C@@H]2CCc3cc(O)ccc3[C@@H]12` [E11-2,1] was tested. Which “relative binding affinity (RBA)” value (estrogen receptor) did it give?
**A.** Its value is 24%.

**Q.** And the “relative stimulatory activity (RSA)” value (Ishikawa cells)?
**A.** Its value is 16%.

**Q.** And the “antiestrogenic activity (in words)” value (Ishikawa cell [2])?
**A.** Its value is “neither E11-2,1 nor E11-2,0 showed any antiestrogenic activity”.

**Q.** What about the “agonist / antagonist character” value (Ishikawa cell [1]) of the same compound?
**A.** The value was “estrogen”.

**Q.** Which “agonist / antagonist character” value (Ishikawa cell [1]) does the source give for `COCCC1CC2(C)C(O)CCC2C2CCc3cc(O)ccc3C12` (centres unmarked) [E11-2,1ether] here?
**A.** Its value is “agonist/slight antagonist”.

**Q.** With `CC(=O)OCC[C@H]1C[C@]2(C)[C@@H](O)CC[C@H]2[C@@H]2CCc3cc(O)ccc3[C@@H]12` [E11-2,2Rev] as the compound, how does the “agonist / antagonist character” value (Ishikawa cell [1]) read?
**A.** The value was “agonist”.

**Q.** With `CCOC(=O)C[C@H]1C[C@]2(C)[C@@H](O)CC[C@H]2[C@@H]2CCc3cc(O)ccc3[C@@H]12` [E11-2,2] as the compound, how does the “relative binding affinity (RBA)” value (estrogen receptor) read?
**A.** The value was 45%.

**Q.** What about the “estrogenic activity (in words)” value (Ishikawa cells) of the same compound?
**A.** Its value is “almost inactive”.

**Q.** What about the “antiestrogenic activity (in words)” value (Ishikawa cell [2]) of the same compound?
**A.** The value was “inhibited the estrogenic stimulation of alkaline phosphatase in the Ishikawa cell, with very high potency”.

**Q.** And the Ki (Ishikawa cell [2]; inhibition of estrogenic stimulation of alkaline phosphatase, several assays)?
**A.** Its Ki is 1 to 2 nM.

**Q.** What about the “effect on uterotrophic action of estradiol” value ([3]; 3 μg analog) of the same compound?
**A.** The value was “partially active”.

**Q.** What about the “effect on uterotrophic action of estradiol” value ([3]; 10 μg analog) of the same compound?
**A.** The value was “completely abolished the effect of 20 ng estradiol”.

**Q.** What about the “effect on uterotrophic action of estradiol (uterine weight)” value ([3]; 100 μg analog, 50 ng estradiol, FIG. 7) of the same compound?
**A.** Its value is “inhibiting the action of 50 ng of estradiol”.

**Q.** What about the “agonist / antagonist character” value (Ishikawa cell [1]) of the same compound?
**A.** Its value is “antiestrogen; also recorded: strong antagonist”.

**Q.** `CCOCCC1CC2(C)C(O)CCC2C2CCc3cc(O)ccc3C12` (centres unmarked) [E11-2,2ether] was tested. Which “inhibition of the effect of estradiol” value ([3]; 30 μg analog) did it give?
**A.** Its value is “about 50%”.

**Q.** And the “agonist / antagonist character” value (Ishikawa cell [1])?
**A.** Its value is “strong antagonist”.

**Q.** With `CCCOC(=O)C[C@H]1C[C@]2(C)[C@@H](O)CC[C@H]2[C@@H]2CCc3cc(O)ccc3[C@@H]12` [E11-2,3] as the compound, how does the “agonist / antagonist character” value (Ishikawa cell [1]) read?
**A.** The value was “strong antagonist”.

**Q.** `CCCOCCC1CC2(C)C(O)CCC2C2CCc3cc(O)ccc3C12` (centres unmarked) [E11-2,3ether] was tested. Which “agonist / antagonist character” value (Ishikawa cell [1]) did it give?
**A.** The value was “strong antagonist”.

**Q.** With `CC(C)OC(=O)C[C@H]1C[C@]2(C)[C@@H](O)CC[C@H]2[C@@H]2CCc3cc(O)ccc3[C@@H]12` [E11-2,3i] as the compound, how does the “agonist / antagonist character” value (Ishikawa cell [1]) read?
**A.** Its value is “strong antagonist”.

**Q.** Which “agonist / antagonist character” value (Ishikawa cell [1]) does the source give for `CCCCOC(=O)C[C@H]1C[C@]2(C)[C@@H](O)CC[C@H]2[C@@H]2CCc3cc(O)ccc3[C@@H]12` [E11-2,4] here?
**A.** The value was “strong antagonist”.

**Q.** For `CC(C)(C)COC(=O)C[C@H]1C[C@]2(C)[C@@H](O)CC[C@H]2[C@@H]2CCc3cc(O)ccc3[C@@H]12` [E11-2,5neo], which “agonist / antagonist character” value (Ishikawa cell [1]) is on record?
**A.** The value was “antagonist”.

**Q.** For `C[C@]12C[C@H](CCOC3CCCC3)[C@@H]3c4ccc(O)cc4CC[C@H]3[C@@H]1CC[C@@H]2O` [E11-2,cyclo-Pent ether], which “agonist / antagonist character” value (Ishikawa cell [1]) is on record?
**A.** The value was “extremely strong antagonists; also recorded: very strong antagonist”.

**Q.** How did the “agonist / antagonist character” value (Ishikawa cell [1]) turn out when `C[C@]12C[C@H](CCOC3CC3)[C@@H]3c4ccc(O)cc4CC[C@H]3[C@@H]1CC[C@@H]2O` [E11-2,cyclo-Pr ether] was run?
**A.** The value was “strong antagonist”.

**Q.** Which “agonist / antagonist character” value (Ishikawa cell [1]) does the source give for `CC(C)OCCC1CC2(C)C(O)CCC2C2CCc3cc(O)ccc3C12` (centres unmarked) [E11-2,iPr ether] here?
**A.** The value was “strong antagonist”.

**Q.** With `CC(C)(C)OCCC1CC2(C)C(O)CCC2C2CCc3cc(O)ccc3C12` (centres unmarked) [E11-2,tBu ether] as the compound, how does the “agonist / antagonist character” value (Ishikawa cell [1]) read?
**A.** The value was “very weak antagonist”.

**Q.** How did the “agonist / antagonist character” value (Ishikawa cell [1]) turn out when `CCC(=O)C[C@H]1C[C@]2(C)[C@@H](O)CC[C@H]2[C@@H]2CCc3cc(O)ccc3[C@@H]12` [E11-2K2] was run?
**A.** Its value is “weak agonist”.

**Q.** Which results are given for `CCCC(=O)C[C@H]1C[C@]2(C)[C@@H](O)CC[C@H]2[C@@H]2CCc3cc(O)ccc3[C@@H]12` [E11-2K3]?
**A.** effect on uterotrophic response of estradiol ([3]; 30 μg analog): completely abolished the uterotrophic response of estradiol; agonist / antagonist character (Ishikawa cell [1]): antagonist

**Q.** Which “agonist / antagonist character” value (Ishikawa cell [1]) does the source give for `CCOC(=S)C[C@H]1C[C@]2(C)[C@@H](O)CC[C@H]2[C@@H]2CCc3cc(O)ccc3[C@@H]12` [E11-2S2] here?
**A.** The value was “antagonist”.

**Q.** And the “agonist / antagonist character” value (Ishikawa cell [1]; listed as E11-2S,2)?
**A.** The value was “strong antagonist”.

**Q.** Which “agonist / antagonist character” value (Ishikawa cell [1]) does the source give for `COCCCC1CC2(C)C(O)CCC2C2CCc3cc(O)ccc3C12` (centres unmarked) [E11-3,1 ether] here?
**A.** The value was “antagonist”.

**Q.** For `COC(=O)CC[C@H]1C[C@]2(C)[C@@H](O)CC[C@H]2[C@@H]2CCc3cc(O)ccc3[C@@H]12` [E11-3,1], which “agonist / antagonist character” value (Ishikawa cell [1]) is on record?
**A.** The value was “antagonist”.

**Q.** For `CCOCCCC1CC2(C)C(O)CCC2C2CCc3cc(O)ccc3C12` (centres unmarked) [E11-3,2 ether], which “agonist / antagonist character” value (Ishikawa cell [1]) is on record?
**A.** The value was “strong antagonist”.

**Q.** Which “agonist / antagonist character” value (Ishikawa cell [1]) does the source give for `CC12CC(CCCOCCF)C3c4ccc(O)cc4CCC3C1CCC2O` (centres unmarked) [E11-3,2F1 ether] here?
**A.** Its value is “strong antagonist”.

**Q.** With `CC(=O)OCCC[C@H]1C[C@]2(C)[C@@H](O)CC[C@H]2[C@@H]2CCc3cc(O)ccc3[C@@H]12` [E11-3,2Rev] as the compound, how does the “agonist / antagonist character” value (Ishikawa cell [1]) read?
**A.** Its value is “antagonist”.

**Q.** For `CC(C)OCCCC1CC2(C)C(O)CCC2C2CCc3cc(O)ccc3C12` (centres unmarked) [E11-3,iPr ether], which “agonist / antagonist character” value (Ishikawa cell [1]) is on record?
**A.** The value was “strong antagonist”.

**Q.** Which “agonist / antagonist character” value (Ishikawa cell [1]) does the source give for `CC(C)(C)C(=O)OCCC[C@H]1C[C@]2(C)[C@@H](O)CC[C@H]2[C@@H]2CCc3cc(O)ccc3[C@@H]12` [E11-3,piv Rev] here?
**A.** Its value is “antagonist”.

**Q.** Which “agonist / antagonist character” value (Ishikawa cell [1]) does the source give for `CC(C)(C)OCCCC1CC2(C)C(O)CCC2C2CCc3cc(O)ccc3C12` (centres unmarked) [E11-3,tBu ether] here?
**A.** The value was “extremely strong antagonists; also recorded: very strong antagonist”.

**Q.** How did the “relative stimulatory activity (RSA)” value (Ishikawa cells) turn out when `C[C@]12CC[C@@H]3c4ccc(O)cc4CC[C@H]3[C@@H]1CCC2=O` [estrone, reference compound] was run?
**A.** The value was 4%.
